In series [1] the test system is forced swimming test with rats (duration of immobility). Nature of the series: Antidepressant activity: forced swimming test using rats. Type of series: in vivo, Wistar male rats. As to conditions: for Suppression of duration of immobility: vs saline; for Effect on duration of immobility (in words): oral administration. The protocol: (§1) As experimental animals, Wistar male rats and ddY male mice were used for the tests after they were housed for a week under every 12 hours' dark-light cycle at room temperature of 24° to 26° C.
That is, a rat (5 week-old) was placed into a glass cylinder having the inside diameter of 18 cm and the height of 40 cm which contained water (water temperature: 25° C.) up to its height of 15 cm. After 15 minutes, the rat was picked up followed by drying and then returned to his home cage. After 24 hours, the rat was again placed into the water in the same cylinder. The duration of immobility (the time rat kept motionless) was accumulatively measured with a stopwatch for five minutes (a five minutes' test). Each test compound was suspended in saline. The administration was carried out three times, at 24, 5 and 1 hour before the five minutes' test in case of an intraperitoneal administration or with only a single administration at 1 hour before the five minutes' test in case of an oral administration to examine the antidepressant effect.
The duration of immobility in Table 4 is the mean value for […] in each group. Suppression is expressed as a ratio in percentage of a reduction of the duration of immobility in the group administered with the test compound to that in the control group administered with saline alone.

The subject of series [2] is experimental amnesia in mice induced by cycloheximide. Nature of the series: Anti-amnesic effect: passive avoidance task (step-through), cycloheximide-induced amnesia. Type of series: in vivo, ddY male mice. To be noted: for Step-through latency: mean of group; for responders at 3 mg/kg / responders at 1 mg/kg: Mus musculus, mice with latency > 100 seconds, read-out: Ratio of memory. The protocol: as §1
The effect on experimental amnesia in mice induced by cycloheximide was evaluated.
The experiment was carried out using an experimental apparatus of passive avoidance task for mice (made by Ohara-ika-sangyo K. K.) comprising a box divided into the two compartments of dark and light. That is, the dark compartment [a box having a reverse trapezoid cross section (height: 8 cm, base line: 5 cm, oblique line: 9.5 cm) and having the length of 14 cm] was shield from a light with a black plastic case and was floored with stainless grids for giving an electrical shock so that an electricity might be turned on a determined time after interception of a photobeam placed in the dark compartment. The light compartment made of transparent plastic (a box of the same shape as that of the dark compartment having the length of 16 cm, lightened from a location spaced 25 cm above by a 60 W electric lamp) was provided adjacent to the dark compartment. Between the two compartments, there was provided a circular entrance having the diameter of 3 cm with a guillotine door which could be opened and closed. By using the above-mentioned dark-light box, the experiment was carried out according to the following procedure.
A mouse (5 week-old) previously conditioned in the dark-light box was put in the light compartment and the guillotine door was opened. Three seconds after the mouse moved into the dark compartment and interrupted the photobeam, 0.3 mA electrical shock was given to limbs for 3 seconds from the floor grid (aquisition trial). Just after the mouse rushed into the light compartment, the door was shut and the […] in the light compartment was picked out to return to his home cage. After 24 hours, the mouse was placed again in the light compartment and the period from the opening of the guillotine door to the time the mouse completely entered the dark compartment was recorded maximally 300 seconds as a step-through latency (retention trial).
The amnesia was induced by subcutaneous injection of cycloheximide (120 mg/kg) dissolved in saline 10 minutes before the aquisition trial. As a control, the same amount of saline alone was administered. […]
A ratio of number of mice showing the step-through latency of more than 100 seconds in the group was defined as a ratio of memory for convenience's sake.
The step-through latency in Table 2 was the mean value for each treated group.

Series [3] can be described thus: Acute toxicity test, oral. To be noted: mouse, in vivo, ddY mice, 2 weeks observation. It counts as in vivo, ddY male mice. The protocol: With respect to the compounds 1 to 86 shown in Table 1 as test compounds, the acute toxicity was examined using ddY mice according to the following method.
In each group, six male ddY mice weighing 27 to 30 g were employed. The compounds 1 to 86 suspended in an aqueous solution of 0.5% sodium carboxymethylcellulose were administered orally in a volume of 0.1 ml/10 g body weight. […] The LD50 (mg/kg) values were estimated from the ratio of the number of dead mice to the number of mice used.

The mark [4] stands for this setting: p.o., 30 mg/kg, 1 hour before test.

For orientation: LD50 means the dose at which mortality reaches 50%.

Structures are written as SMILES.

Turning to `CN(C)CCCN1c2ccccc2CCc2ccccc21` [Imipramine, imipramine, reference compound], the Duration of immobility in series [1] (i.p., 100 mg/kg/time, 24, 5 and 1 hour before test) worked out at 79 s; in series [1] (setting [4]) it was 210 s. For the same compound, the “Suppression of duration of immobility” value in series [1] (i.p., 100 mg/kg/time) is given as 61%; in series [1] (p.o., 30 mg/kg), -2%. For the same compound, the “Effect on duration of immobility (in words)” value in series [1] was “no effect”.
On to `CCN1CCC(Cc2cccc(Oc3ccccc3)c2)C1=O` (centres unmarked) [Compound 82], for which, in series [2] (3 mg/kg oral), the Step-through latency amounted to 102 s and the responders at 3 mg/kg was 38%. The LD50 at 336 h in series [3] was at least 500 mg/kg.
For the compound `COC1CC(=Cc2cccc(Oc3ccccc3)c2)C(=O)N1` (centres unmarked) [Compound 55], in series [2] (3 mg/kg oral), the Step-through latency is 80 s and the responders at 3 mg/kg came out at 25%. This compound returned an LD50 at 336 h in series [3] of at least 500 mg/kg.
Take `O=C1NCC(c2ccccc2)C1=Cc1cccc(Oc2ccccc2)c1` (centres unmarked) [Compound 62]: in series [2] (3 mg/kg oral), the Step-through latency worked out at 170 s and the responders at 3 mg/kg came to 50%. Besides, in series [3], the LD50 at 336 h was at least 500 mg/kg.
As to `CCC1C(=Cc2cccc(Oc3ccccc3)c2)CCN1CC` (centres unmarked) [Compound 78], in series [2] (1 mg/kg oral), the Step-through latency was 132 s and the responders at 1 mg/kg was 75%. In series [3], the LD50 at 336 h was at least 500 mg/kg.
For `N#CCN1CCC(=Cc2cccc(Oc3ccccc3)c2)C1=O` [Compound 37], in that order: 110 s, 50% and at least 500 mg/kg.
In the case of `O=C1C(=Cc2cccc(Oc3ccccc3)c2)CCN1Cc1ccc(Cl)cc1` [Compound 50], in series [2] (3 mg/kg oral), the Step-through latency was found to be 100 s and the responders at 3 mg/kg came to 50%. Moreover, the LD50 at 336 h in series [3] is at least 500 mg/kg.
Take `O=C1NCCC1=Cc1ccc(Oc2ccccc2)c([N+](=O)[O-])c1` [Compound 7]: in series [2] (3 mg/kg oral), the Step-through latency was found to be 113 s and the responders at 3 mg/kg turned out to be 50%. This compound also came in with an LD50 at 336 h in series [3] of at least 500 mg/kg.
For the compound `CC(=O)N1CCC(=Cc2cccc(Oc3ccccc3)c2)C1=O` [Compound 41], in series [2] (3 mg/kg oral), the Step-through latency was determined as 80 s and the responders at 3 mg/kg stood at 25%. In addition, the LD50 at 336 h in series [3] was at least 500 mg/kg.
As to `O=C1C(=Cc2cccc(Oc3ccccc3)c2)CCN1c1ccccc1` [Compound 46], in series [2] (3 mg/kg oral), the Step-through latency amounted to 172 s and the responders at 3 mg/kg worked out at 75%. The compound also came in with an LD50 at 336 h in series [3] of at least 500 mg/kg.
For `COCCN1CCC(=Cc2cccc(Oc3ccccc3)c2)C1=O` [Compound 23], in series [2] (3 mg/kg oral), the Step-through latency amounted to 71 s and the responders at 3 mg/kg amounted to 50%. Further, in series [3], the LD50 at 336 h is at least 500 mg/kg.
Take `CCCCC1C(=Cc2cccc(Oc3ccccc3)c2)CCN1CC` (centres unmarked) [Compound 79]: in series [2] (1 mg/kg oral), the Step-through latency is 168 s and the responders at 1 mg/kg was determined as 50%. For the same compound, in series [3], the LD50 at 336 h is at least 500 mg/kg.
The corresponding values for `NC(=O)N1CCC(=Cc2cccc(Oc3ccccc3)c2)C1` [Compound 73] are 119 s, 50% and at least 500 mg/kg.
Turning to `CN(C)CCNC(=O)CN1CCC(=Cc2cccc(Oc3ccccc3)c2)C1=O` [Compound 36], in series [2] (1 mg/kg oral), the Step-through latency is 163 s and the responders at 1 mg/kg stood at 75%. Moreover, in series [3], the LD50 at 336 h is at least 500 mg/kg.
As for `O=C1C(=Cc2cccc(Oc3ccccc3)c2)CCN1CCOC1CCCCO1` (centres unmarked) [Compound 24], in series [2] (3 mg/kg oral), the Step-through latency was 109 s and the responders at 3 mg/kg worked out at 38%. For the same compound, the LD50 at 336 h in series [3] is at least 500 mg/kg.
Regarding `C#CCN(C)Cc1ccccc1` [Pargyline, pargyline, reference compound], the “Effect on duration of immobility (in words)” value in series [1] is reported as “prolongation of the duration of immobility”. For the same compound, the Duration of immobility in series [1] (setting [4]) was 244 s. Further, the “Suppression of duration of immobility” value in series [1] (p.o., 30 mg/kg) is -19%.
Turning to `C=CCN1CCC(=Cc2cccc(Oc3ccccc3)c2)C1` [Compound 69], in series [2] (1 mg/kg oral), the Step-through latency was determined as 102 s and the responders at 1 mg/kg was found to be 50%. Besides, the LD50 at 336 h in series [3] was at least 500 mg/kg.
`COc1ccc(NC(=O)N2CCC(=Cc3cccc(Oc4ccccc4)c3)C2=O)cc1` [Compound 31]: in series [2] (3 mg/kg oral), the Step-through latency worked out at 100 s and the responders at 3 mg/kg worked out at 50%. This compound also had an LD50 at 336 h in series [3] of at least 500 mg/kg.
In the case of `COc1ccc(CN2CCC(=Cc3cccc(Oc4ccccc4)c3)C2=O)cc1` [Compound 49], in series [2] (1 mg/kg oral), the Step-through latency was determined as 102 s and the responders at 1 mg/kg is 50%. In addition, in series [3], the LD50 at 336 h is at least 500 mg/kg.
Take `O=C1NCCC1=Cc1ccccc1Oc1ccccc1` [Compound 3]: in series [2] (3 mg/kg oral), the Step-through latency was 173 s and the responders at 3 mg/kg came to 75%. The compound also showed an LD50 at 336 h in series [3] of at least 500 mg/kg.
Turning to `CC(=O)N1CCC(=Cc2cccc(Oc3ccccc3)c2)C1` [Compound 74], in series [2] (1 mg/kg oral), the Step-through latency is 107 s and the responders at 1 mg/kg worked out at 50%. For the same compound, the LD50 at 336 h in series [3] was at least 500 mg/kg.
Consider `O=C1C(=Cc2cccc(Oc3ccccc3)c2)CCN1C(=O)c1ccccc1` [Compound 42], for which, in series [2] (1 mg/kg oral), the Step-through latency is 80 s and the responders at 1 mg/kg was 25%. The compound further yielded an LD50 at 336 h in series [3] of at least 500 mg/kg.
In the case of `CN(C)CCN1CCC(=Cc2cccc(Oc3ccccc3)c2)C1=O` [Compound 40], in series [2] (1 mg/kg oral), the Step-through latency came to 116 s and the responders at 1 mg/kg amounted to 50%. In series [3], the LD50 at 336 h is at least 500 mg/kg.
`O=C1NCCC1=Cc1cccc(Oc2ccccc2)c1` [Compound 1] gave a Step-through latency in series [2] (3 mg/kg oral) of 198 s. For the same compound, the responders at 3 mg/kg in series [2] (3 mg/kg oral) came out at 72%. For the same compound, the LD50 at 336 h in series [3] is at least 500 mg/kg. Also, the Duration of immobility in series [1] (i.p., 1 mg/kg/time, 24, 5 and 1 hour before test) was 164 s; in series [1] (i.p., 3 mg/kg/time, 24, 5 and 1 hour before test), 101 s; in series [1] (i.p., 10 mg/kg/time, 24, 5 and 1 hour before test), 71 s; in series [1] (i.p., 30 mg/kg/time, 24, 5 and 1 hour before test), 54 s; in series [1] (p.o., 0.3 mg/kg, 1 hour before test) it was 190 s; in series [1] (p.o., 1 mg/kg, 1 hour before test), 165 s. Further, the Duration of immobility in series [1] (p.o., 3 mg/kg, 1 hour before test) came out at 137 s; in series [1] (p.o., 10 mg/kg, 1 hour before test), 76 s; in series [1] (setting [4]), 34 s. Further, the “Suppression of duration of immobility” value in series [1] (i.p., 1 mg/kg/time) was 20%; in series [1] (i.p., 3 mg/kg/time), 50%; in series [1] (i.p., 10 mg/kg/time) it was 65%; in series [1] (i.p., 30 mg/kg/time), 74%; in series [1] (p.o., 0.3 mg/kg), 7%; in series [1] (p.o., 1 mg/kg), 20%. The “Suppression of duration of immobility” value in series [1] (p.o., 3 mg/kg) amounted to 33%; in series [1] (p.o., 10 mg/kg) it was 63%; in series [1] (p.o., 30 mg/kg) it was 83%.
With `O=C1NCCC1=Cc1cccc(Oc2ccc(Cl)cc2)c1` [Compound 6], in series [2] (3 mg/kg oral), the Step-through latency was 101 s and the responders at 3 mg/kg amounted to 31%. In addition, in series [3], the LD50 at 336 h was at least 500 mg/kg.
With `COc1ccc(Oc2cccc(C=C3CCNC3=O)c2)cc1` [Compound 5], in series [2] (3 mg/kg oral), the Step-through latency stood at 134 s and the responders at 3 mg/kg was 50%. For the same compound, the LD50 at 336 h in series [3] is at least 500 mg/kg.

Source of the values: US5270339A, “Phenoxybenzene derivative” (Kanagafuchi Kagaku Kogyo Kabushiki Kaisha, priority 1991, dated 1993).
